US20210177952A1, “METHOD AND COMPOSITION FOR STIMULATING IMMUNE RESPONSE” (BeyondSpring Pharmaceuticals, Inc., priority 2018, published 2021)
Where two headings read alike, the source gives them in different places.

How the values were obtained:
ovalbumin IgG1 = experiment: Serum anti-ovalbumin IgG1 ELISA after OVA/CFA immunization of mice; format: in vivo, Mouse, C57BL6; conditions: for anti-OVA IgG1 concentrations in serum: 7.5 and 10 mg/kg IP BID for a single day, 3, 6, 14 or 28 days after immunization, Day 30 and Day 62 samples
Method: A study was performed to evaluate the effect of plinabulin on boosting B-cell response to immunization. Samples were prepared using an emulsion of complete Freund's adjuvant (CFA) with the foreign protein ovalbumin (OVA), each with varying concentrations of plinabulin (plinabulin doses range from 0.01 mg to 30 mg), and the control was prepared with no plinabulin added. Normal healthy mice were immunized by subcutaneous injection of the CFA+OVA emulsion +/−plinabulin, and/or intraperitoneal injection of ALUM+OVA adjuvant +/−plinabulin (n=5 mice per plinabulin dose group). At different time points as discussed below in this Example, the animals were bled to collect serum for evaluating the concentration of IgG that binds OVA in the serum.
DOSE PREPARATION OF OVALBUMIN EMULSIONS IN COMPLETE FREUND'S ADJUVANT: EndoFit™ Ovalbumin Kit (InvivoGen, USA), containing 10 mg powder in one glass vial and 10 mL of sterile endotoxin-free physiological water in one glass vial, and CFA 10 mL in one glass vial were received in good condition and stored at 2-8° C. until Day 1. The sterile endotoxin-free saline solution was allowed to reach room temperature before use. Inside a BSL2 cabinet, 5 mL sterile water was added into the vial containing 10 mg of OVA and gently agitated to obtain a homogenous 2 mg/mL OVA solution. To 2.5 mL of CFA, 2.5 mL of OVA solution was added; and the mixture was emulsified by vigorously mixing into two connected 10 mL locking syringes to prepare a 1 mg/mL OVA/CFA emulsion. The emulsification was kept chilled by placing the apparatus into crushed ice for 5 minutes, then mixing and cooling was repeated an additional two times. Stability of the emulsion was tested by adding a drop into water to verify that the emulsion would not dissipate. The emulsion was transferred into five 1 mL syringes for injection and kept cool on crushed ice until immunization. The emulsification processes were repeated with an additional 2.5 mL of OVA solution and 2.5 mL of CFA during immunization of animals to use within 4 hours of preparation.
DOSE PREPARATION OF TEST ARTICLES: Plinabulin solution (Plin-A) at a 0.75 mg/mL was prepared on each day of dosing. Plinabulin powder (3 mg) was weighed into a separate light protected amber vial at room temperature. Using a micropipette, 284 μL of Tween-80 was added to the amber vial and vortex for 1 minute. 1,020 μL of propylene glycol was added to the amber vial and vortexed for 15 minutes, then sonicated in a water bath for 30 minutes. Finally, 2,696 μL of 5% dextrose in water was added to the solution and vortexed for 3 minutes to achieve 4 mL of a 0.75 mg/mL plinabulin solution. Plinabulin solution (Plin-B) at a 1.0 mg/mL was prepared on each day of dosing. Plinabulin powder (3 mg) was weighed into a separate light protected amber vial at room temperature. Using a micropipette, 213 μL of Tween-80 was added to the amber vial and vortex for 1 minute. 765 μL of propylene glycol was added to the amber vial and vortex for 15 minutes, then sonicated in a water bath for 30 minutes. Finally, 2,022 μL of 5% dextrose in water was added to the solution and vortexed for 3 minutes to achieve 3 mL of a 1.0 mg/mL plinabulin solution.
ANTI-OVALBUMIN ASSAY: Mouse anti-OVA IgG1 ELISA kits (Cayman Chemical, USA) were purchased to perform the assay. Serum samples from Day 30 were assayed in 1-to-2,000, 1-to-6,000 and 1-to-20,000 dilution. Serum samples from Day 62 were assayed in 1-to-2,000 and 1-to-20,000 dilution. […]

[1] = mice; cited from earlier work
[2] = human; cited from earlier work

In the case of `CC(C)(C)c1[nH]cnc1/C=c1\[nH]c(=O)/c(=C/c2ccccc2)[nH]c1=O` [Plinabulin, (3Z,6Z)-3-Benzylidene-6-{[5-(2-methyl-2-propanyl)-1H-imidazol-4-yl]methylene}-2,5-piperazinedione], the “anti-OVA IgG1 concentrations in serum” value (ovalbumin IgG1) is reported as “inhibitory effects on anti-OVA in 4 out of 5 subgroups”, the “anti-OVA IgG1 concentrations in serum” value (ovalbumin IgG1; listed as plinabulin) is reported as “significantly reduced, or tended to be reduced” and the “concentration of anti-OVA IgG in serum versus immunization without plinabulin” value (ovalbumin IgG1; mice immunized with CFA+OVA or ALUM+OVA +/- plinabulin) is reported as “higher concentrations of anti-OVA IgG”. The “OVA IgG1 production in serum on Day 62” value (ovalbumin IgG1; subgroup 1: 7.5 mg/kg IP BID, 1 hour after immunization, Day 62) was “significantly increased OVA IgG1 production”, the “production of OVA IgG1 in serum on Day 30” value (ovalbumin IgG1; subgroup 1: plinabulin IP BID 3 hours apart, 1 hour after OVA/CFA immunization, Day 30) was “dose-dependently increased the production of OVA IgG1 on Day 30 without reaching statistical significance” and the plasma elimination half-life [1] was 1.5 to 2 h. The plasma elimination half-life [2] was 5 to 6 h.
